Reference: patent US20250221988A1 (Cullgen (Shanghai), Inc., priority 2022, published 2025)
pIC50: −log10 of the molar value. Like-named read-outs stand apart in the source and are kept apart here. Each block holds one compound with its values, some of them ahead of it.

How the values were obtained:
[1] = test system: MV4;11 cells; assay: Cell viability assay (CellTiter-Glo) in MV4;11 cells; format: cell-based; conditions: read-out: MV4; for pIC50: compound alone, 11 IC50
Protocol: (§1) Cell Culture: RS4;11, MV4;11, MOLM-13 and other cells were cultured at 37° C. with 5% CO2 in RPMI 1640 or DMEM Medium supplemented with 10% fetal bovine serum. Cells were authenticated using the short tandem repeat (STR) assays. Mycoplasma test results were negative.
(§2) Cell viability assays: Cells were seeded at a density of 5000 cells per well in 96-well assay plates and treated with test compounds following a 8-point or 12-point 3-fold serial dilution. Three days later, cell viability was determined using the CellTiter-Glo assay kit according to the manufacturer's instructions. The dose-response curves were determined and IC50 values were calculated using the GraphPad Prism software following a nonlinear regression (least squares fit) method.
The IC50 values (nM) of each compound were determined in MV4;11 and MOLM-13 cells with or without gilteritinib (10 nM for MV4;11; and 20 nM for MOML-13) as described in the Materials and Methods subsection and calculated using the GraphPad Prism 5.0 software.

[2] = test system: MOLM-13 cells; assay: Cell viability assay (CellTiter-Glo) in MOLM-13 cells; format: cell-based; conditions: for pIC50: 72 h, compound alone, read-out: MOLM-13 IC50
Protocol: as §1
as §2, with “method. […]” for “method.”

[3] = Homo sapiens, MV4-11, 72 h, MV4;11 cells, three days
[4] = MV4;11 cells, with 10 nM gilteritinib, three days, 11 IC50 (nM) + 10 nM Gil
[5] = Homo sapiens, MOLM-13 cells, three days
[6] = MOLM-13 cells, with gilteritinib, three days, read-out: MOLM-13 IC50 (nM) + 10 nM Gil

SMILES: Cc1cc(F)cnc1-c1cn([C@H]2C[C@H](CNc3ccc4c(c3)CN(C3CCC(=O)NC3=O)C4=O)C2)nc1C(F)F (stereo partly drawn) [GS-668, 3-(5-(((Trans-3-(3-(difluoromethyl)-4-(5-fluoro-3-methylpyridin-2-yl)-1H-pyrazol-1-yl)cyclobutyl)methyl)amino)-1-oxoisoindolin-2-yl)piperidine-2,6-dione]
pIC50 [1, 3]: > 8.00
IC50 [1, 4]: < 10 nM
pIC50 [2, 5]: > 8.00
IC50 [2, 6]: < 10 nM

SMILES: O=C1CCC(N2C(=O)c3ccc(NC[C@H]4C[C@H](n5cc(-n6ccc7cccnc76)c(C6CC6)n5)C4)cc3C2=O)C(=O)N1 (stereo partly drawn) [GS-751, 5-(((Trans-3-(3-cyclopropyl-4-(1H-pyrrolo[2,3-b]pyridin-1-yl)-1H-pyrazol-1-yl)cyclobutyl)methyl)amino)-2-(2,6-dioxopiperidin-3-yl)isoindoline-1,3-dione]
pIC50 [1, 3]: > 8.00
IC50 [1, 4]: < 10 nM
pIC50 [2, 5]: 7.00 to 8.00
IC50 [2, 6]: < 10 nM

SMILES: O=C1CCC(N2C(=O)c3ccc(NC[C@H]4C[C@H](n5cc(-c6ncc(F)cc6C6CCNCC6)c(C6CC6)n5)C4)cc3C2=O)C(=O)C1 (stereo partly drawn) [GS-686, 5-(((Trans-3-(3-cyclopropyl-4-(5-fluoro-3-(piperidin-4-yl)pyridin-2-yl)-1H-pyrazol-1-yl)cyclobutyl)methyl)amino)-2-(2,4-dioxocyclohexyl)isoindoline-1,3-dione]
pIC50 [1, 3]: < 6.00
IC50 [1, 4]: 100 to 1000 nM
pIC50 [2, 5]: < 6.00
IC50 [2, 6]: 100 to 1000 nM

SMILES: Cc1c2ccccc2nn1[C@H]1C[C@H](CNc2ccc3c(c2)C(=O)N(C2CCC(=O)NC2=O)C3=O)C1 (stereo partly drawn) [GS-688, 2-(2,6-Dioxopiperidin-3-yl)-5-(((trans-3-(3-methyl-2H-indazol-2-yl)cyclobutyl)methyl)amino)isoindoline-1,3-dione]
pIC50 [1, 3]: < 6.00
pIC50 [2, 5]: < 6.00
IC50 [2, 6]: 100 to 1000 nM

SMILES: O=C1CCC(N2C(=O)c3ccc(NC[C@H]4C[C@H](n5cc(-c6cnc7ccc(C8CC(O)C8)cc7n6)c(C6CC6)n5)C4)cc3C2=O)C(=O)N1 (stereo partly drawn) [GS-764, 5-(((Trans-3-(3-cyclopropyl-4-(7-(3-hydroxycyclobutyl)quinoxalin-2-yl)-1H-pyrazol-1-yl)cyclobutyl)methyl)amino)-2-(2,6-dioxopiperidin-3-yl)isoindoline-1,3-dione]
pIC50 [1, 3]: > 8.00
IC50 [1, 4]: < 10 nM
pIC50 [2, 5]: > 8.00
IC50 [2, 6]: < 10 nM

SMILES: Cc1cccc(-c2cn(C3CC4(CC(CNc5ccc6c(c5)C(=O)N(C5CCC(=O)NC5=O)C6=O)C4)C3)nc2C2CC2)n1 (stereo not drawn) [GS-775]
pIC50 [1, 3]: 6.00 to 7.00
IC50 [1, 4]: 100 to 1000 nM
pIC50 [2, 5]: < 6.00
IC50 [2, 6]: 100 to 1000 nM

SMILES: Cc1cccc(-c2nn([C@H]3C[C@H](CNc4ccc5c(c4)C(=O)N(C4CCC(=O)NC4=O)C5=O)C3)cc2C2CC2)n1 (stereo partly drawn) [GS-713, 5-(((Trans-3-(4-cyclopropyl-3-(6-methylpyridin-2-yl)-1H-pyrazol-1-yl)cyclobutyl)methyl)amino)-2-(2,6-dioxopiperidin-3-yl)isoindoline-1,3-dione]
pIC50 [1, 3]: 7.00 to 8.00
IC50 [1, 4]: 10 to 100 nM
pIC50 [2, 5]: 6.00 to 7.00
IC50 [2, 6]: 10 to 100 nM

SMILES: O=C1CCC(N2C(=O)c3ccc(NC[C@H]4C[C@H](n5cc(-c6ccccc6C6CCNCC6)c(C6CC6)n5)C4)cc3C2=O)C(=O)N1 (stereo partly drawn) [GS-654, 5-(((Trans-3-(3-cyclopropyl-4-(2-(piperidin-4-yl)phenyl)-1H-pyrazol-1-yl)cyclobutyl)methyl)amino)-2-(2,6-dioxopiperidin-3-yl)isoindoline-1,3-dione]
pIC50 [1, 3]: < 6.00
IC50 [1, 4]: 10 to 100 nM
pIC50 [2, 5]: 6.00 to 7.00
IC50 [2, 6]: 100 to 1000 nM

SMILES: CC(C)n1ncc2c(-c3cn([C@H]4C[C@H](CNc5ccc6c(c5)C(=O)N(C5CCC(=O)NC5=O)C6=O)C4)nc3C3CC3)ncc(F)c21 (stereo partly drawn) [GS-791, 5-(((Trans-3-(3-Cyclopropyl-4-(7-fluoro-1-isopropyl-1H-pyrazolo[4,3-c]pyridin-4-yl)-1H-pyrazol-1-yl)cyclobutyl)methyl)amino)-2-(2,6-dioxopiperidin-3-yl)isoindoline-1,3-dione]
IC50 ([1]; Homo sapiens, MV4-11, 72 h, 11 IC50 (nM)): < 10 nM
IC50 ([1]; 11 IC50 (nM) + 10 nM Gil, MV4;11 cells, with 10 nM gilteritinib, three days): < 10 nM
IC50 ([2]; Homo sapiens, MOLM-13, 72 h, read-out: MOLM-13 IC50 (nM)): 10 to 100 nM
IC50 ([2]; read-out: MOLM-13 IC50 (nM) + 10 nM Gil, MOLM-13 cells, with gilteritinib, three days): 10 to 100 nM

SMILES: Cc1nc(-c2cn([C@H]3C[C@H](CNc4ccc5c(c4)C(=O)N(C4CCC(=O)NC4=O)C5)C3)nc2C2CC2)ccc1F (stereo partly drawn) [GS-732, 3-(6-(((Trans-3-(3-cyclopropyl-4-(5-fluoro-6-methylpyridin-2-yl)-1H-pyrazol-1-yl)cyclobutyl)methyl)amino)-1-oxoisoindolin-2-yl)piperidine-2,6-dione]
pIC50 [1, 3]: 6.00 to 7.00
IC50 [1, 4]: 10 to 100 nM
pIC50 [2, 5]: < 6.00
IC50 [2, 6]: 100 to 1000 nM

SMILES: Cc1nc(-c2cn([C@H]3C[C@H](CNc4ccc5c(c4)CN([C@@H]4CCC(=O)NC4=O)C5=O)C3)nc2C2CC2)ccc1F [GS-801, (R)-3-(5-(((trans-3-(3-cyclopropyl-4-(5-fluoro-6-methylpyridin-2-yl)-1H-pyrazol-1-yl)cyclobutyl)methyl)amino)-1-oxoisoindolin-2-yl)piperidine-2,6-dione]
pIC50 [2, 5]: 7.00 to 8.00

Second part, the compound after the results:

pIC50 ([1]; MV4;11 cells, three days): 6.00 to 7.00
IC50 [1, 4]: 10 to 100 nM
pIC50 [2, 5]: < 6.00
IC50 [2, 6]: 10 to 100 nM
SMILES: Cc1nc(-c2cn(C3CC(O)(CNc4ccc5c(c4)C(=O)N(C4CCC(=O)NC4=O)C5=O)C3)nc2C2CC2)ccc1F (stereo not drawn) [GS-759, 5-(((Cis-3-(3-cyclopropyl-4-(5-fluoro-6-methylpyridin-2-yl)-1H-pyrazol-1-yl)-1-hydroxycyclobutyl)methyl)amino)-2-(2,6-dioxopiperidin-3-yl)isoindoline-1,3-dione]

pIC50 [1, 3]: 7.00 to 8.00
IC50 [1, 4]: < 10 nM
pIC50 [2, 5]: 7.00 to 8.00
IC50 [2, 6]: < 10 nM
SMILES: O=C1CCC(N2C(=O)c3ccc(NCCCn4cc(-c5cnc6ccccc6n5)c(C5CC5)n4)cc3C2=O)C(=O)N1 (stereo not drawn) [GS-642, 5-((3-(3-Cyclopropyl-4-(quinoxalin-2-yl)-1H-pyrazol-1-yl)propyl)amino)-2-(2,6-dioxopiperidin-3-yl)isoindoline-1,3-dione]

pIC50 [1, 3]: > 8.00
IC50 [1, 4]: < 10 nM
pIC50 [2, 5]: > 8.00
IC50 [2, 6]: < 10 nM
SMILES: CC(C)n1cc2ccnc(-c3cn([C@H]4C[C@H](CNc5ccc6c(c5)C(=O)N(C5CCC(=O)NC5=O)C6=O)C4)nc3C3CC3)c2n1 (stereo partly drawn) [GS-660, 5-(((Trans-3-(3-cyclopropyl-4-(2-isopropyl-2H-pyrazolo[3,4-c]pyridin-7-yl)-1H-pyrazol-1-yl)cyclobutyl)methyl)amino)-2-(2,6-dioxopiperidin-3-yl)isoindoline-1,3-dione]

pIC50 [1, 3]: 7.00 to 8.00
IC50 [1, 4]: < 10 nM
pIC50 [2, 5]: 7.00 to 8.00
IC50 [2, 6]: < 10 nM
SMILES: O=C1CCC(N2C(=O)c3ccc(NC[C@H]4C[C@H](n5cc(-c6cnc7c(NC(CO)CO)cccc7n6)c(C6CC6)n5)C4)cc3C2=O)C(=O)N1 (stereo partly drawn) [GS-710, 5-(((Trans-3-(3-cyclopropyl-4-(5-((1,3-dihydroxypropan-2-yl)amino)quinoxalin-2-yl)-1H-pyrazol-1-yl)cyclobutyl)methyl)amino)-2-(2,6-dioxopiperidin-3-yl)isoindoline-1,3-dione]

pIC50 [1, 3]: < 6.00
pIC50 [2, 5]: < 6.00
SMILES: COc1ccc2c(C3CC3)nn([C@H]3C[C@H](CNc4ccc5c(c4)C(=O)N(C4CCC(=O)NC4=O)C5=O)C3)c2n1 (stereo partly drawn) [GS-674, 5-(((Trans-3-(3-cyclopropyl-6-methoxy-1H-pyrazolo[3,4-b]pyridin-1-yl)cyclobutyl)methyl)amino)-2-(2,6-dioxopiperidin-3-yl)isoindoline-1,3-dione]

pIC50 [1, 3]: > 8.00
IC50 [1, 4]: < 10 nM
pIC50 [2, 5]: > 8.00
IC50 [2, 6]: < 10 nM
SMILES: Cn1ncc2cnc(-c3cn([C@H]4C[C@H](CNc5ccc6c(c5)CN(C5CCC(=O)NC5=O)C6=O)C4)nc3C3CC3)cc21 (stereo partly drawn) [GS-678, 3-(5-(((Trans-3-(3-cyclopropyl-4-(1-methyl-1H-pyrazolo[4,3-c]pyridin-6-yl)-1H-pyrazol-1-yl)cyclobutyl)methyl)amino)-1-oxoisoindolin-2-yl)piperidine-2,6-dione]

pIC50 [1, 3]: < 6.00
IC50 [1, 4]: 100 to 1000 nM
pIC50 [2, 5]: < 6.00
IC50 [2, 6]: 100 to 1000 nM
SMILES: O=C1CCC(N2C(=O)c3ccc(OC[C@H]4C[C@H](n5cc(-c6cnc7ccccc7n6)c(C6CC6)n5)C4)cc3C2=O)C(=O)N1 (stereo partly drawn) [GS-640, 5-((Trans-3-(3-cyclopropyl-4-(quinoxalin-2-yl)-1H-pyrazol-1-yl)cyclobutyl)methoxy)-2-(2,6-dioxopiperidin-3-yl)isoindoline-1,3-dione]

pIC50 [1, 3]: < 6.00
pIC50 [2, 5]: < 6.00
IC50 [2, 6]: 100 to 1000 nM
SMILES: O=C1CCC(N2C(=O)c3ccc(NC[C@H]4C[C@H](n5nc(C6CC6)c6cc(N7CCNCC7)ccc65)C4)cc3C2=O)C(=O)N1 (stereo partly drawn) [GS-740, 5-(((Trans-3-(3-cyclopropyl-5-(piperazin-1-yl)-1H-indazol-1-yl)cyclobutyl)methyl)amino)-2-(2,6-dioxopiperidin-3-yl)isoindoline-1,3-dione]
